These results are taken from patent US20240190862A1 (AMGEN INC., priority 2019, published 2024).

For assay [1], the target named is GDP-bound KRAS protein (aa 1-169) G12D/C118A (Homo sapiens (Human), UniProt P01116, C118A/G12D). Nature of the assay: Coupled Nucleotide Exchange Assay (KRAS G12D). It is filed as biochemical. On the procedure: (§1) Coupled Nucleotide Exchange Assay: Purified GDP-bound KRAS protein (aa 1-169), containing either G12C or G12D, as well as C118A amino acid substitutions and an N-terminal His-tag, was pre-incubated in assay buffer (25 mM HEPES pH 7.4, 10 mM MgCl2, and 0.01% Triton X-100) with a compound dose-response titration for either 5 min or 20 hours (see Table 15). Following compound pre-incubation, purified SOS protein (aa 564-1049) and GTP (Roche 10106399001) were added to the assay wells and incubated for an additional 30 min. To determine the extent of inhibition of SOS-mediated nucleotide exchange, purified GST-tagged cRAF (aa 1-149), nickel chelate AlphaLISA acceptor beads (PerkinElmer AL108R), and AlphaScreen glutathione donor beads (PerkinElmer 6765302) were added to the assay wells and incubated for 10 minutes. The assay plates were then read on a PerkinElmer EnVision Multilabel Reader, using AlphaScreen® technology, and data were analyzed using a 4-parameter logistic model to calculate IC50 values.
Sequence of GDP-bound KRAS protein (aa 1-169) G12D/C118A (P01116 other isoform, or with tags, fused parts or gaps G12D/C118A): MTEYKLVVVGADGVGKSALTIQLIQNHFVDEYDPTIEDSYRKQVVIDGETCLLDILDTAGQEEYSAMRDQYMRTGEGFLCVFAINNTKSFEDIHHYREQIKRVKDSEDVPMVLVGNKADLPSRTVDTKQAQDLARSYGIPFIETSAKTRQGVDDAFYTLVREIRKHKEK

Assay [2] concerns the target GDP-bound KRAS protein (aa 1-169) G12C/C118A (Homo sapiens (Human), UniProt P01116, C118A/G12C). Nature of the assay: Coupled Nucleotide Exchange Assay (KRAS G12C). It counts as biochemical. On the procedure: as §1
Where [3] appears, read: 20 h compound pre-incubation, read-out: GDP KRAS G12D 20 h Coupled Exchange IC50 IP.
Setting [4] is: 5 min compound pre-incubation, read-out: GDP KRAS G12C 5 min Coupled Exchange IC50 IP.
Setting [5] is: 20 h compound pre-incubation, read-out: GDP KRAS G12C 20 h Coupled Exchange IC50 IP.

Each structure is given as a SMILES string. Read-outs that look alike come from different tables or passages of the source. Some results are limits rather than exact numbers.

Sequence of GDP-bound KRAS protein (aa 1-169) G12C/C118A (P01116 other isoform, or with tags, fused parts or gaps G12C/C118A): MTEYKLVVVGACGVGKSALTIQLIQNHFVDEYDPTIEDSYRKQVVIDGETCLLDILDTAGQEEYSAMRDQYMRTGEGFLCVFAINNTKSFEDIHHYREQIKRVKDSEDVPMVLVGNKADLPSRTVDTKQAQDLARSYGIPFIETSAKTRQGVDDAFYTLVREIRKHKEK

Take `Cc1ccnc(C(C)C)c1-n1c(=O)nc(N2CCN(C(=O)[C@H]3O[C@@H]3C)C[C@@H]2C)c2cc(Cl)c(-c3ccccc3F)nc21` (mixture of isomers) [Example 17, 6-Chloro-7-(2-fluorophenyl)-1-(2-isopropyl-4-methylpyridin-3-yl)-4-((S)-2-methyl-4-((2R,3S)-3-methyloxirane-2-carbonyl)piperazin-1-yl)pyrido[2,3-d]pyrimidin-2(1H)-one and 6-chloro-7-(2-fluorophenyl)-1-(2-isopropyl-4-methylpyridin-3-yl)-4-((S)-2-methyl-4-((2S,3R)-3-methyloxirane-2-carbonyl)piperazin-1-yl)pyrido[2,3-d]pyrimidin-2(1H)-one]: the values for the IC50 in assay [1] (setting [3]), in assay [2] (setting [4]) and in assay [2] (setting [5]) were > 250 µM, 17.8 µM and 0.096 µM, respectively.

Turning to `Cc1ccnc(C(C)C)c1-n1c(=O)nc(N2CCN(C(=O)CCl)C[C@@H]2C)c2cc(Cl)c(-c3ccccc3F)nc21` [Example 1, (S)-6-Chloro-4-(4-(2-chloroacetyl)-2-methylpiperazin-1-yl)-7-(2-fluorophenyl)-1-(2-isopropyl-4-methylpyridin-3-yl)pyrido[2,3-d]pyrimidin-2(1H)-one], the IC50 in assay [1] (setting [3]) is > 250 µM; in assay [2] (setting [4]), 1.29 µM; in assay [2] (setting [5]), 0.026 µM.

Regarding `Cc1ccnc(C(C)C)c1-n1c(=O)nc(N2CCN(C(=O)CF)C[C@@H]2C)c2cc(Cl)c(-c3ccccc3F)nc21` [Example 2, (S)-6-Chloro-4-(4-(2-fluoroacetyl)-2-methylpiperazin-1-yl)-7-(2-fluorophenyl)-1-(2-isopropyl-4-methylpyridin-3-yl)pyrido[2,3-d]pyrimidin-2(1H)-one], the IC50 was > 250 µM in assay [1]; > 250 µM in assay [2] (GDP KRAS G12C 5 min Coupled Exchange IC50 IP, 5 min compound pre-incubation); 13.4 µM in assay [2] (GDP KRAS G12C 20 h Coupled Exchange IC50 IP, 20 h compound pre-incubation).

Turning to `Cc1ccnc(C(C)C)c1-n1c(=O)nc(N2CCN(C(=O)COc3ccccc3)C[C@@H]2C)c2cc(Cl)c(-c3ccccc3F)nc21` [Example 6, (S)-6-Chloro-7-(2-fluorophenyl)-1-(2-isopropyl-4-methylpyridin-3-yl)-4-(2-methyl-4-(2-phenoxyacetyl)piperazin-1-yl)pyrido[2,3-d]pyrimidin-2(1H)-one], the IC50 in assay [1] (setting [3]) was > 250 µM; in assay [2] (setting [4]) it was > 250 µM; in assay [2] (setting [5]) it was 131 µM.

For the compound `Cc1ccnc(C(C)C)c1-n1c(=O)nc(N2CCN(C(=O)COc3c(Cl)cccc3Cl)C[C@@H]2C)c2cc(Cl)c(-c3ccccc3F)nc21` [Example 7, (S)-6-Chloro-4-(4-(2-(2,6-dichlorophenoxy)acetyl)-2-methylpiperazin-1-yl)-7-(2-fluorophenyl)-1-(2-isopropyl-4-methylpyridin-3-yl)pyrido[2,3-d]pyrimidin-2(1H)-one], the 50% inhibitory concentration (IC50) is > 250 µM in assay [1] (setting [3]), > 250 µM in assay [2] (setting [4]) and 26.2 µM in assay [2] (setting [5]).

As to `Cc1ccnc(C(C)C)c1-n1c(=O)nc(N2CCN(C(=O)COc3c(F)c(F)cc(F)c3F)C[C@@H]2C)c2cc(Cl)c(-c3ccccc3F)nc21` [Example 9, (S)-6-chloro-7-(2-fluorophenyl)-1-(2-isopropyl-4-methylpyridin-3-yl)-4-(2-methyl-4-(2-(2,3,5,6-tetrafluorophenoxy)acetyl)piperazin-1-yl)pyrido[2,3-d]pyrimidin-2(1H)-one], the IC50 in assay [1] (setting [3]) was > 250 µM; in assay [2] (setting [4]), 33.9 µM; in assay [2] (setting [5]) it was 2.45 µM.

Turning to `Cc1ccnc(C(C)C)c1-n1c(=O)nc(N2CCN(C(=O)COc3c(F)cc(F)cc3F)C[C@@H]2C)c2cc(Cl)c(-c3ccccc3F)nc21` [Example 11, (S)-6-Chloro-7-(2-fluorophenyl)-1-(2-isopropyl-4-methylpyridin-3-yl)-4-(2-methyl-4-(2-(2,4,6-trifluorophenoxy)acetyl)piperazin-1-yl)pyrido[2,3-d]pyrimidin-2(1H)-one], the results for the concentration for half-maximal inhibition (IC50) in assay [1] (setting [3]), in assay [2] (setting [4]) and in assay [2] (setting [5]) were > 250 µM, 69.8 µM and 5.45 µM, respectively.

Take `Cc1ccnc(C(C)C)c1-n1c(=O)nc(N2CCN(C(=O)COc3cccc(F)c3F)C[C@@H]2C)c2cc(Cl)c(-c3ccccc3F)nc21` [Example 12, (S)-6-Chloro-7-(2-fluorophenyl)-1-(2-isopropyl-4-methylpyridin-3-yl)-4-(2-methyl-4-(2-(2,3-difluorophenoxy)acetyl)piperazin-1-yl)pyrido[2,3-d]pyrimidin-2(1H)-one]: the IC50 in assay [1] (setting [3]) was > 250 µM; in assay [2] (setting [4]), 35.7 µM; in assay [2] (setting [5]), 2.02 µM.

With `Cc1ccnc(C(C)C)c1-n1c(=O)nc(N2CCN(C(=O)[C@H]3CN3)C[C@@H]2C)c2cc(Cl)c(-c3ccccc3F)nc21` [Example 14, 4-((S)-4-((R)-Aziridine-2-carbonyl)-2-methylpiperazin-1-yl)-6-chloro-7-(2-fluorophenyl)-1-(2-isopropyl-4-methylpyridin-3-yl)pyrido[2,3-d]pyrimidin-2(1H)-one], the values for the IC50 in assay [1] (setting [3]), in assay [2] (setting [4]) and in assay [2] (setting [5]) were > 250 µM, 88.3 µM and 1.56 µM, respectively.

Turning to `Cc1ccnc(C(C)C)c1-n1c(=O)nc(N2CCN(C(=O)[C@@H]3CO3)C[C@@H]2C)c2cc(Cl)c(-c3ccccc3F)nc21` [Example 15, 6-Chloro-7-(2-fluorophenyl)-1-(2-isopropyl-4-methylpyridin-3-yl)-4-((S)-2-methyl-4-((S)-oxirane-2-carbonyl)piperazin-1-yl)pyrido[2,3-d]pyrimidin-2(1H)-one], the IC50 in assay [1] (setting [3]) was > 250 µM; in assay [2] (setting [4]) it was 74.1 µM; in assay [2] (setting [5]) it was 0.83 µM.

For the compound `CCOC(=O)[C@H]1O[C@@H]1C(=O)N1CCN(c2nc(=O)n(-c3c(C)ccnc3C(C)C)c3nc(-c4ccccc4F)c(Cl)cc23)[C@@H](C)C1` [Example 18, Ethyl (2S,3S)-3-((S)-4-(6-chloro-7-(2-fluorophenyl)-1-(2-isopropyl-4-methylpyridin-3-yl)-2-oxo-1,2-dihydropyrido[2,3-d]pyrimidin-4-yl)-3-methylpiperazine-1-carbonyl)oxirane-2-carboxylate], the values for the 50% inhibitory concentration (IC50) in assay [1] (setting [3]), in assay [2] (setting [4]) and in assay [2] (setting [5]) were > 250 µM, 23.9 µM and 0.53 µM, respectively.

Take `Cc1ccnc(C(C)C)c1-n1c(=O)nc(N2CCN(C(=O)[C@@H]3O[C@H]3C(=O)O)C[C@@H]2C)c2cc(Cl)c(-c3ccccc3F)nc21` [Example 20, (2R,3R)-3-((S)-4-(6-chloro-7-(2-fluorophenyl)-1-(2-isopropyl-4-methylpyridin-3-yl)-2-oxo-1,2-dihydropyrido[2,3-d]pyrimidin-4-yl)-3-methylpiperazine-1-carbonyl)oxirane-2-carboxylic acid]: the figures for the IC50 in assay [1] (setting [3]) and in assay [2] (setting [5]) were > 250 µM and 1 µM, respectively.

Turning to `Cc1ccnc(C(C)C)c1-n1c(=O)nc(N2CCN(C(=O)[C@@H]3O[C@H]3CN3CCCCC3)C[C@@H]2C)c2cc(Cl)c(-c3ccccc3F)nc21` [Example 21, 6-Chloro-7-(2-fluorophenyl)-1-(2-isopropyl-4-methylpyridin-3-yl)-4-((S)-2-methyl-4-((2R,3S)-3-(piperidin-1-ylmethyl)oxirane-2-carbonyl)piperazin-1-yl)pyrido[2,3-d]pyrimidin-2(1H)-one], the IC50 in assay [1] (setting [3]) is > 250 µM; in assay [2] (setting [4]), 1.12 µM; in assay [2] (setting [5]) it was 0.005 µM.

Consider `Cc1ccnc(C(C)C)c1-n1c(=O)nc(N2CCN(C(=O)[C@@H]3O[C@H]3CO)C[C@@H]2C)c2cc(Cl)c(-c3ccccc3F)nc21` [Example 22, 6-Chloro-7-(2-fluorophenyl)-4-((S)-4-((2R,3S)-3-(hydroxymethyl)oxirane-2-carbonyl)-2-methylpiperazin-1-yl)-1-(2-isopropyl-4-methylpyridin-3-yl)pyrido[2,3-d]pyrimidin-2(1H)-one], for which the half-inhibitory concentration (IC50) is > 250 µM in assay [1] (setting [3]), 6.26 µM in assay [2] (setting [4]) and 0.064 µM in assay [2] (setting [5]).

For the compound `Cc1ccnc(C(C)C)c1-n1c(=O)nc(N2CCN(C(=O)C3CO3)[C@@H](CC#N)C2)c2cc(Cl)c(-c3ccccc3F)nc21` (stereo partly drawn) [Example 23, 2-((2S)-4-(6-Chloro-7-(2-fluorophenyl)-1-(2-isopropyl-4-methylpyridin-3-yl)-2-oxo-1,2-dihydropyrido[2,3-d]pyrimidin-4-yl)-1-(oxirane-2-carbonyl)piperazin-2-yl)acetonitrile], the IC50 is > 250 µM in assay [1] (setting [3]), > 250 µM in assay [2] (setting [4]) and 0.431 µM in assay [2] (setting [5]).

Regarding `Cc1ccnc(C(C)C)c1-n1c(=O)nc(N2CC3(CN(C(=O)C4CO4)C3)C2)c2cc(Cl)c(-c3ccccc3F)nc21` (stereo not shown) [Example 24, 6-Chloro-7-(2-fluorophenyl)-1-(2-isopropyl-4-methylpyridin-3-yl)-4-(6-(oxirane-2-carbonyl)-2,6-diazaspiro[3.3]heptan-2-yl)pyrido[2,3-d]pyrimidin-2(1H)-one], the half-inhibitory concentration (IC50) is > 250 µM in assay [1] (setting [3]), 222 µM in assay [2] (setting [4]) and 41.6 µM in assay [2] (setting [5]).

`Cc1ccnc(C(C)C)c1-n1c(=O)nc(N2CCC3(CC2)CN(C(=O)[C@H]2CO2)C3)c2cc(Cl)c(-c3ccccc3F)nc21` [Example 25, (R)-6-chloro-7-(2-fluorophenyl)-1-(2-isopropyl-4-methylpyridin-3-yl)-4-(2-(oxirane-2-carbonyl)-2,7-diazaspiro[3.5]nonan-7-yl)pyrido[2,3-d]pyrimidin-2(1H)-one]: the IC50 in assay [1] (setting [3]) was > 250 µM; in assay [2] (setting [5]) it was 7.15 µM.

The IC50 is the point on the concentration scale where inhibition reaches its midpoint.
